Data from US11912693B2, “Compounds for modulating S1P1 activity and methods of using the same” (TREVENA, INC., priority 2017, dated 2024).

Legend:
[1] = target: human sphingosine-1-phosphate receptor 2 (S1P2) (Homo sapiens (Human), UniProt O95136); test: Inositol monophosphate production (IP-one TB kit), S1P2 CHO-K1 cells; assay type: cell-based; conditions: for Emax: CHO-K1, efficacy normalized to CYM5520, read-out: hS1P2 IP-one SPAN; for hS1P2 IP-one pEC50: inositol monophosphate accumulation
human sphingosine-1-phosphate receptor 2 (S1P2), sequence (O95136 whole entry): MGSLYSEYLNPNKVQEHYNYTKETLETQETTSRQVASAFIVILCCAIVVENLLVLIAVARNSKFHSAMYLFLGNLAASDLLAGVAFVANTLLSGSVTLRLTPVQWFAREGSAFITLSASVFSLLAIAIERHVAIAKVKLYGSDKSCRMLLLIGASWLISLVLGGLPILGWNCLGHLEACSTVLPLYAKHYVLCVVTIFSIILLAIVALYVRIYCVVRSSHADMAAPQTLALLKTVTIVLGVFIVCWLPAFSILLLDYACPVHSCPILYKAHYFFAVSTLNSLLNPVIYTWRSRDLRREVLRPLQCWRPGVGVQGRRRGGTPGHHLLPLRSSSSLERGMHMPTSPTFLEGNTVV
Protocol: (§1) Stable clonal Chinese hamster ovary K1 (CHO-K1) cells co-expressing EA-β-arrestin2 and the human sphingosine-1-phosphate receptor 2 (NM_004230.3, S1P2), human sphingosine-1-phosphate receptor 3 (NM_005226, S1P3) and sphingosine-1-phosphate receptor 5 (NM_001166215.1, S1P5) with a C-terminal Prolink™ tag were purchased from DiscoverX corporation (S1P2: Cat #93-0256C2, S1P3: Cat #93-0217C2, S1P5: Cat #93-0583C2).
(§2) Cell lines were cultured in AssayComplete™ Media 6 (DiscoverX Corporation, Cat #: 920018GF2) at 37° C. and 5% CO2 in a humidified CO2 and temperature-controlled incubator. To begin assay plating, cells were washed with dulbecco's phosphate buffered saline (CellGro, Cat #: 21-031-CV) and lifted from the culturing flask by incubation (37° C., 5 min) with CellStripper (Cellgro, Cat #: 25-056-CI). […] Plated cells were incubated overnight at 37° C. and 5% CO2 in a humidified CO2 and temperature-controlled incubator.
S1P2 Agonist-promoted G-protein responses were determined by measuring changes in intracellular inositol monophosphate using the IP-one TB kit (CisBio, Cat #: 62IPAPEJ) based on time-resolved fluorescence resonance energy transfer (TR-FRET) technology. AssayComplete™ Cell Plating 2 Reagent was removed and replaced with 1× IP-one stimulation buffer (as per manufacturer's instructions) along with test or control compounds at the desired concentrations. Following a 60-minute incubation at 37° C. and 5% CO2 in a humidified CO2 and temperature-controlled incubator, the components of the IP-one TB kit were added as per the manufacturer's instructions. After an hour incubation at room temperature, plates were analyzed by a BMG PheraStar microplate reader.
(§3) The tables below include the efficacy of the compound as compared to a positive control, referred to as “SPAN”. These values are normalized to fingolimod, a known agonist of the sphingosine-1-phosphate 3 and 5 receptor or CYM5520, a known agonist of the sphingosine-1-phosphate 2 receptor. The tables also include potency values (pEC50) for modulating discrete receptor-mediated activities (inhibition of cAMP production or inositol monophosphate accumulation).

[2] = target: T1, human sphingosine-1-phosphate receptor 1 (S1P1) (Homo sapiens (Human), UniProt P21453); test: Inhibition of cAMP production (HTRF cAMP HiRange), S1P1 CHO-K1 cells; assay type: cell-based; conditions: for Emax: CHO-K1, efficacy (SPAN) normalized to fingolimod, read-out: hS1P1 cAMP SPAN
Procedure, shortened: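 CHO-K1 cells stably co-expressing human S1P1 (C-terminal Prolink tag) and EA-β-arrestin2 were grown in AssayComplete Media 6 at 37° C. and 5% CO2, plated, and incubated overnight. Agonist-driven inhibition of intracellular cAMP was read by TR-FRET with the HTRF cAMP HiRange kit on a PheraStar reader. Potency is pEC50, and efficacy (SPAN) is normalized to fingolimod.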
Target sequence in this assay (P21453 whole entry, looked up): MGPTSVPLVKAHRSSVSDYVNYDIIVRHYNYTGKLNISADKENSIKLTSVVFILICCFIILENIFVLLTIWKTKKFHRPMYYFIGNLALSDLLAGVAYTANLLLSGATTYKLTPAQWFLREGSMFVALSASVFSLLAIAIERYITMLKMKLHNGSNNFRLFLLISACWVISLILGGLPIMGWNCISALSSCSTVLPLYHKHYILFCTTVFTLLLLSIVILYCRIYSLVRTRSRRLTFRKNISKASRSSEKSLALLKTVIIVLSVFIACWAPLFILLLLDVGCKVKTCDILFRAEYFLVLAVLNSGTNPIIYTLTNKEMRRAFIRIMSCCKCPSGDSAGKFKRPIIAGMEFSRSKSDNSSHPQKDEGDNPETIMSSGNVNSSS

[3] = system: paclitaxel induced peripheral neuropathy; test: Reversal of allodynia induced by paclitaxel in mice (s.c. or p.o., von Frey frequency method); assay type: in vivo, c57bl/6 mice; conditions: Mus musculus; for inhibition in vivo at 1 mg/kg: sc, 0.5 h, 1 mg/kg s.c., tested 30 min after dosing, read-out: Screen @ 1 mg/kg sc (% MPE); for inhibition in vivo at 3 mg/kg: po, 1 h, 3 mg/kg p.o., tested 60 min after dosing, read-out: Screen @ 3 mg/kg po (% MPE)
Procedure, shortened: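 Neuropathy was induced in mice by paclitaxel (6 mg/kg i.p., days 1, 3, 5, 7) or oxaliplatin (4 mg/kg i.p., days 1-5), with re-testing about 14 days later. Compounds were given s.c. (tested at 30 min) or p.o. (tested at 60 min; paclitaxel only). A 0.4 g von Frey filament was applied ten times per paw, and % non-response was converted to % MPE.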

[4] = target: T1, human sphingosine-1-phosphate receptor 1 (S1P1); test: β-Arrestin2 recruitment assay (PathHunter), S1P1 CHO-K1 cells; assay type: cell-based; conditions: for Emax: CHO-K1, efficacy (SPAN) normalized to fingolimod, read-out: hS1P1 B-arrestin2 SPAN
Procedure, shortened: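 Enzyme-fragment complementation read-out: agonist-driven β-arrestin2 binding to ProLink-tagged human S1P1 in stable CHO-K1 cells restores β-galactosidase, measured 1 h at room temperature after a 60 min 37° C. compound incubation. Potency as pEC50, efficacy relative to fingolimod (SPAN).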
Target sequence in this assay (P21453 whole entry, looked up): as above
Target sequence in this assay (P32121 whole entry partner, looked up): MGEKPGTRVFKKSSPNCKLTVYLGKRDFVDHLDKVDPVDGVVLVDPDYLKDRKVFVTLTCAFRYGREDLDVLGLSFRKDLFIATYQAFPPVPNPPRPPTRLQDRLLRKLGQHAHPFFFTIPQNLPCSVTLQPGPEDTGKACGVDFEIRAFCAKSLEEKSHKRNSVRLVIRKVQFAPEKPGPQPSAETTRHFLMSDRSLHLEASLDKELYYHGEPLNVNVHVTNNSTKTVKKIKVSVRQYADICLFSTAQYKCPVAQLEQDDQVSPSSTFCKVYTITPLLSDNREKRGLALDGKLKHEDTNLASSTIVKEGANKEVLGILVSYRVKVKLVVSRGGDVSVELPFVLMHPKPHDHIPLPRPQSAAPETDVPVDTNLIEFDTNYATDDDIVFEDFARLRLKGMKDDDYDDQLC

[5] = target: sphingosine-1-phosphate receptor 5 (S1P5) (Homo sapiens (Human), UniProt Q9H228); test: Inhibition of cAMP production (HTRF), S1P5 CHO-K1 cells; assay type: cell-based; conditions: for Emax: CHO-K1, efficacy normalized to fingolimod, read-out: hS1P5 cAMP SPAN; for hS1P5 cAMP pEC50: inhibition of cAMP production
sphingosine-1-phosphate receptor 5 (S1P5), sequence (Q9H228 whole entry): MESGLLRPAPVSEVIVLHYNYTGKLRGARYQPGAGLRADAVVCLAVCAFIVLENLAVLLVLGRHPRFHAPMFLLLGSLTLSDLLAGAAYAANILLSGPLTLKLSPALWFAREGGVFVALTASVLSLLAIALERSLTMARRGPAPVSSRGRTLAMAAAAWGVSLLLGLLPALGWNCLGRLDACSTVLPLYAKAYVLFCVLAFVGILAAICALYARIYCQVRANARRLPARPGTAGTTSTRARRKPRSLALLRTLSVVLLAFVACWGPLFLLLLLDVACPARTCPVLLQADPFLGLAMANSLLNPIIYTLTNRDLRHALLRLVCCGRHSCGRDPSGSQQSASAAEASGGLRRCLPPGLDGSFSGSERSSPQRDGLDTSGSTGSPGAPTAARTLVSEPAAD
Protocol: as §1, §2
(§4) S1P3 and S1P5 Agonist-promoted G-protein responses were determined by measuring changes in intracellular cAMP using the HTRF® cAMP HiRange kit (CisBio, Cat #: 62AM6PEJ) based on time-resolved fluorescence resonance energy transfer (TR-FRET) technology. […] Following a 30-minute room temperature incubation the components of the cAMP HiRange kit were added as per the manufacturer's instructions. After an hour incubation at room temperature, plates were analyzed by a BMG PheraStar microplate reader.
as §3

[6] = target: human sphingosine-1-phosphate receptor 3 (S1P3) (Homo sapiens (Human), UniProt Q99500); test: Inhibition of cAMP production (HTRF), S1P3 CHO-K1 cells; assay type: cell-based; conditions: for Emax: CHO-K1, efficacy normalized to fingolimod, read-out: hS1P3 cAMP SPAN; for hS1P3 cAMP pEC50: inhibition of cAMP production
human sphingosine-1-phosphate receptor 3 (S1P3), sequence (Q99500 whole entry): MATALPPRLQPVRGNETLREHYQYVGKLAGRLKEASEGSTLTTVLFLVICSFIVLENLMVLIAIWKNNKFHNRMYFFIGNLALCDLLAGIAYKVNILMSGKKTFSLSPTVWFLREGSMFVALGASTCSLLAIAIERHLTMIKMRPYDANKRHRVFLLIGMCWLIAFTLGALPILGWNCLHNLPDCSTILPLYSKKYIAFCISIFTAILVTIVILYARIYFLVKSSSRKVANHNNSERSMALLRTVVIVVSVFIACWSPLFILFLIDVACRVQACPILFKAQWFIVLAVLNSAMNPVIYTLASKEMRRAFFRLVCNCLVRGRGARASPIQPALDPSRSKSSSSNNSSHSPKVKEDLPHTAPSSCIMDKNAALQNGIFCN
Protocol: as §1, §2, §4, §3

[7] = inhibition of cAMP production, S1P1 CHO-K1 cells
[8] = β-arrestin2 recruitment, S1P1 CHO-K1 cells

| Compound | Emax [1] | hS1P2 IP-one pEC50 [1] | Emax [2] | hS1P1 cAMP pEC50 [2, 7] | inhibition in vivo at 1 mg/kg [3] | Emax [4] | hS1P1 B-arrestin2 pEC50 [4, 8] | Emax [5] | hS1P5 cAMP pEC50 [5] | Emax [6] | hS1P3 cAMP pEC50 [6] | EC50 ([2]; inhibition of cAMP production, S1P1 CHO-K1 cells, read-out: hS1P1 cAMP pEC50 (converted)) | EC50 ([4]; β-arrestin2 recruitment, S1P1 CHO-K1 cells, read-out: hS1P1 B-arrestin2 pEC50 (converted)) | inhibition in vivo at 3 mg/kg [3] |
| --- | --- | --- | --- | --- | --- | --- | --- | --- | --- | --- | --- | --- | --- | --- |
| C=CCNc1ccc(-c2nc(-c3ccc(NS(C)(=O)=O)cc3)no2)cc1C#N [Compound 149, N-(4-(5-(4-(allylamino)-3-cyanophenyl)-1,2,4-oxadiazol-3-yl)phenyl)methanesulfonamide] | < 50% | <5.0 | > 75% | >6.5 | < 50% | > 75% | >5 | > 50% | >5.0 | > 50% | >5.0 | – | – | – |
| C=CCNc1ccc(-c2nc(-c3ccc4[nH]cnc4c3)no2)cc1C#N [Compound 177, 5-(3-(1H-benzo[d]imidazol-5-yl)-1,2,4-oxadiazol-5-yl)-2-(allylamino)benzonitrile] | < 50% | <5.0 | > 75% | >6.5 | > 50% | > 75% | >5 | > 50% | >5.0 | > 50% | >5.0 | – | – | – |
| CCC1(CC)CC(=O)c2cc(-c3nc(-c4ccc(C(=O)NC)cc4)no3)ccc2O1 [Compound 185, 4-(5-(2,2-diethyl-4-oxochroman-6-yl)-1,2,4-oxadiazol-3-yl)-N-methylbenzamide] | < 50% | <5.0 | > 75% | >6.5 | > 50% | > 75% | >5 | > 50% | <5.0 | < 50% | <5.0 | – | – | – |
| CCC1(CC)CC(=O)c2cc(-c3nc(-c4ccccc4Cl)no3)ccc2O1 [Compound 221, 6-(3-(2-chlorophenyl)-1,2,4-oxadiazol-5-yl)-2,2-diethylchroman-4-one] | – | <5.0 | – | >6.5 | < 50% | – | >5 | – | >5.0 | – | >5.0 | – | – | – |
| C=CCNc1ccc(-c2nc(-c3cn[nH]c3)no2)cc1C#N [Compound 252, 5-(3-(1H-pyrazol-4-yl)-1,2,4-oxadiazol-5-yl)-2-(allylamino)benzonitrile] | – | >5.0 | – | – | < 50% | – | – | – | >5.0 | – | >5.0 | < 0.316 µM | < 10 µM | – |
| CC(C)Nc1ccc(-c2nc(-c3ccc4c(c3)CCC(=O)N4)no2)cc1C#N [Compound 259, 2-(isopropylamino)-5-(3-(2-oxo-1,2,3,4-tetrahydroquinolin-6-yl)-1,2,4-oxadiazol-5-yl)benzonitrile] | < 50% | <5.0 | > 75% | >6.5 | < 50% | < 75% | >5 | < 50% | <5.0 | < 50% | <5.0 | – | – | – |
| CCC1(CC)CC(=O)c2cc(-c3nc(-c4ccc(NS(C)(=O)=O)cc4)no3)ccc2O1 [Compound 262, N-(4-(5-(2,2-diethyl-4-oxochroman-6-yl)-1,2,4-oxadiazol-3-yl)phenyl)methanesulfonamide] | > 50% | <5.0 | > 75% | >6.5 | > 50% | > 75% | >5 | < 50% | <5.0 | < 50% | <5.0 | – | – | > 50% |
| CCC1(CC)CC(=O)c2cc(-c3nc(-c4ccnc(O)c4)no3)ccc2O1 [Compound 263, 2,2-diethyl-6-[3-(2-hydroxy-4-pyridyl)-1,2,4-oxadiazol-5-yl]chroman-4-one] | – | <5.0 | – | >6.5 | > 50% | – | >5 | – | <5.0 | – | <5.0 | – | – | > 50% |
| C=CCNc1ccc(-c2nc(-c3ccc4sc(N)nc4c3)no2)cc1C#N [Compound 267, 2-(allylamino)-5-(3-(2-aminobenzo[d]thiazol-5-yl)-1,2,4-oxadiazol-5-yl)benzonitrile] | – | <5.0 | – | >6.5 | > 50% | – | >5 | – | <5.0 | – | <5.0 | – | – | – |
| COc1cnccc1-c1nc(-c2ccc3c(ccn3C(C)C)c2)no1 [Compound 391, 3-(1-isopropyl-1H-indol-5-yl)-5-(3-methoxypyridin-4-yl)-1,2,4-oxadiazole] | – | >5.0 | – | >6.5 | – | – | >5 | – | >5.0 | – | >5.0 | – | – | – |
| COc1ccccc1-c1nc(-c2ccc3c(ccn3C(C)C)c2)no1 [Compound 398, 3-(1-isopropyl-1H-indol-5-yl)-5-(2-methoxyphenyl)-1,2,4-oxadiazole] | – | <5.0 | – | >6.5 | – | – | >5 | – | <5.0 | – | <5.0 | – | – | – |
| COc1ccccc1-c1nnc(-c2ccc3c(c2)oc(=O)n3C)o1 [Compound 406, 6-[5-(2-methoxyphenyl)-1,3,4-oxadiazol-2-yl]-3-methyl-2,3-dihydro-1,3-benzoxazol-2-one] | – | <5.0 | – | >6.5 | – | – | >5 | – | <5.0 | – | <5.0 | – | – | – |
| Cc1ccncc1-c1noc(-c2ccc3c(c2)nnn3C2CCC2)n1 [Compound 417, 1-cyclobutyl-5-[3-(4-methylpyridin-3-yl)-1,2,4-oxadiazol-5-yl]-1H-1,2,3-benzotriazole] | – | >5.0 | – | >6.5 | – | – | >5 | – | <5.0 | – | <5.0 | – | – | – |
